Earlier results as cited in US20090162488A1, “BEVERAGE PRODUCTS AND FLAVOR SYSTEMS HAVING A NON-SWEETENING AMOUNT OF MONATIN” (The Concentrate Manufacturing Company of Ireland, priority 2007, published 2009).
Peptide text beside a SMILES is read from it.

Conditions: commonly accepted potency figures; weight basis versus sugar

Structure (SMILES) | potency figures: times as sweet as sugar
COC(=O)[C@H](Cc1ccccc1)NC(=O)[C@H](CC(=O)O)NCCC(C)(C)C [Neotame] | 8,000 times as sweet as sugar
CC1=CC(=O)NS(=O)(=O)O1 [Acesulfame-K] | 200 times as sweet as sugar
C=C1C[C@@]23CC[C@H]4[C@@](C)(CCC[C@@]4(C)C(=O)O[C@@H]4O[C@H](CO)[C@@H](O)[C@H](O)[C@H]4O)[C@@H]2CC[C@]1(O[C@@H]1O[C@H](CO)[C@@H](O)[C@H](O)[C@H]1O[C@@H]1O[C@H](CO)[C@@H](O)[C@H](O)[C@H]1O)C3 [Stevioside] | 100-250 times as sweet as sugar
COC(=O)[C@H](Cc1ccccc1)NC(=O)[C@@H](N)CC(=O)O [Aspartame] (H-Asp-Phe-OMe) | 200 times as sweet as sugar
C=C1C[C@@]23CC[C@H]4[C@@](C)(CCC[C@@]4(C)C(=O)O[C@@H]4O[C@H](CO)[C@@H](O)[C@H](O)[C@H]4O)[C@@H]2CC[C@]1(O[C@@H]1O[C@H](CO)[C@@H](O)[C@H](O[C@@H]2O[C@H](CO)[C@@H](O)[C@H](O)[C@H]2O)[C@H]1O[C@@H]1O[C@H](CO)[C@@H](O)[C@H](O)[C@H]1O)C3 [Rebaudioside A] | 150-300 times as sweet as sugar
CC1(C)[C@@H](O[C@H]2O[C@H](C(=O)O)[C@@H](O)[C@H](O)[C@H]2O[C@@H]2O[C@H](C(=O)O)[C@@H](O)[C@H](O)[C@H]2O)CC[C@]2(C)[C@H]3C(=O)C=C4[C@@H]5C[C@@](C)(C(=O)O)CC[C@]5(C)CC[C@@]4(C)[C@]3(C)CC[C@@H]12 [Glycyrrhizin] | 30-50 times as sweet as sugar
C[C@H](CC[C@@H](O[C@@H]1O[C@H](CO[C@@H]2O[C@H](CO)[C@@H](O)[C@H](O)[C@H]2O)[C@@H](O)[C@H](O)[C@H]1O[C@@H]1O[C@H](CO)[C@@H](O)[C@H](O)[C@H]1O)C(C)(C)O)[C@H]1CC[C@@]2(C)[C@@H]3CC=C4[C@@H](CC[C@H](O[C@@H]5O[C@H](CO[C@@H]6O[C@H](CO)[C@@H](O)[C@H](O)[C@H]6O)[C@@H](O)[C@H](O)[C@H]5O)C4(C)C)[C@]3(C)[C@H](O)C[C@]12C [Mogroside V] | 100-300 times as sweet as sugar
COc1ccc(CCC(=O)c2c(O)cc(O[C@@H]3O[C@H](CO)[C@@H](O)[C@H](O)[C@H]3O[C@@H]3O[C@@H](C)[C@H](O)[C@@H](O)[C@H]3O)cc2O)cc1O [Neohesperidin dihydrochalcone] | 300 times as sweet as sugar
OC[C@H]1O[C@H](O[C@]2(CCl)O[C@H](CCl)[C@@H](O)[C@@H]2O)[C@H](O)[C@@H](O)[C@H]1Cl [Sucralose] | 600 times as sweet as sugar
O=C1NS(=O)(=O)c2ccccc21 [Saccharin] | 300 times as sweet as sugar
C[C@@H](NC(=O)[C@@H](N)CC(=O)O)C(=O)NC1C(C)(C)SC1(C)C [Alitame] | 2,000 times as sweet as sugar

Same assay, conditions: versus sugar (i.e., sucrose)

Structure (SMILES) | sweetness potency
NC(CC(O)(Cc1c[nH]c2ccccc12)C(=O)O)C(=O)O (stereo not drawn) [Monatin, 2-hydroxy-2-(indol-3-lymethyl)-4-aminoglutaric acid] | about 2000 times as sweet as sugar
